From patent US8741886B2, “Baclofen and acamprosate based therapy of neurological disorders” (Pharnext, priority 2011, dated 2014)

Test system: Human brain microvascular endothelial cerebral cells (HBMEC)
Test: Toxicity of human Aβ1-42 peptide on HBMEC: total length of capillary network
Type: cell-based
Conditions: Aβ1-42 2.5 μM; single drugs at the concentrations used in the combination
Experimental: Human brain microvascular endothelial cell cultures were used to study the protection afforded by candidate compound(s) on Aβ1-42 toxicity.
Human brain microvascular endothelial cerebral cells (HBMEC, ScienCell Ref: 1000, frozen at passage 10) were rapidly thawed in a waterbath at +37° C. The supernatant was immediately put in 9 ml Dulbecco's modified Eagle's medium (DMEM; Pan Biotech ref: P04-03600) containing 10% of foetal calf serum (FCS; GIBCO ref 10270-106). […]
• Negative Control: medium alone+0.1% DMSO • Intoxication: amyloid-β1-42 (2.5 μM) for 18 h • Positive control: VEGF-165 (10 nM) (1 reference compound/culture) 1 hr before the Aβ1-42 (2.5 μM) addition for a 18 h incubation time. • Test compounds: Test compound(s) 1 hr before the Aβ1-42 (2.5 μM) addition for a 18 h incubation time. Capillary Network Quantification
Per well, 2 pictures with 4× lens were taken using InCell Analyzer™ 1000 (GE Healthcare) in light transmission. […] The total length of capillary network was assessed.
Data were expressed in percentage of control conditions (no intoxication, no amyloid=100%) in order to express the amyloid injury. All values were expressed as mean+/−SEM (s.e.mean) of the 3 cultures (n=6 wells per condition). […]

## NCC(CC(=O)O)c1ccc(Cl)cc1 (centres unmarked) [Baclofen]
  effect on Aβ1-42 intoxication, total length of capillary network (in words): no significant effect

## CC(=O)NCCCS(=O)(=O)O [Acamprosate]
  effect on Aβ1-42 intoxication, total length of capillary network (in words): no significant effect
